Experimental data as given in patent publication US5962463A, “Methods of stimulating non-amyloidogenic processing of the amyloid precursor protein” (Massachusetts Institute Of Technology, priority 1997, dated 1999).
Structures can show the parent of a compound that is named as a salt.

How the values were obtained:
[1] = tested on: APP release; assay: APP release and cell-associated APP in serotonin receptor transfected 3T3 cells (receptor subtype not stated); type: cell-based, human
[2] = taken orally by an individual; cited from earlier work
[3] = target: T1, human brain serotonin 5HT1C receptor (Homo sapiens, UniProt P28335); conditions: for effect on receptor-activated APP release in response to dexnorfenfluramine: 5HT1C transfected cell lines, FIG. 3
T1 sequence (P28335 33-458): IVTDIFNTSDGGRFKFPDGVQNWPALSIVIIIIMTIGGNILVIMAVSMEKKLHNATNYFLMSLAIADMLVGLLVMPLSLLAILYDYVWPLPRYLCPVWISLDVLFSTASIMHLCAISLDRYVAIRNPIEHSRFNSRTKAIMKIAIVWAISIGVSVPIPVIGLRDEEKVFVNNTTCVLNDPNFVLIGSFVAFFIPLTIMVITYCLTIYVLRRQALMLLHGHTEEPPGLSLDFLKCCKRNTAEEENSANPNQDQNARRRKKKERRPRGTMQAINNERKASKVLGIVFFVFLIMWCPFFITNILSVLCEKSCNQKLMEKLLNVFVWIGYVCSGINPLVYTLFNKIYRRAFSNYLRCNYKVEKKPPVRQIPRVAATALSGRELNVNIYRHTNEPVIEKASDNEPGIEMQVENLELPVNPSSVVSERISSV

[4] = tested on: slices of rat brain; conditions: 100 μM, incubated in slices of rat brain; cited from earlier work
[5] = tested on: human serotonin-1C surface receptor; assay: Phosphatidylinositol turnover in NIH 3T3 cells expressing the 5HT1C receptor; type: cell-based; conditions: NIH 3T3 cells expressing 5-HT1C, FIG. 2B
From the text: FIG. 2A is a graphic representation of concentration dependent APP^S release by NIH 3T3 cells transfected with and expressing the gene for the human serotonin-1C surface receptor in response to activation by dexnorfenfluramine. FIG. 2B is a graphic representation of phosphatidylinositol turnover in the same cells in response to activation by dexnorfenfluramine.
In this instance, the agent interacts with and stimulates the serotonin surface receptor directly. […] Additional evidence is provided by the observation that turnover of phosphatidylinositol is stimulated in these cells by dexnorfenfluramine (FIG. 2B).

[6] = target: human brain serotonin 5HT2 receptor (Homo sapiens, UniProt P28223); conditions: for effect on receptor-activated APP release in response to serotonin: 5HT2 transfected cell lines, insert in FIG. 1C
[7] = tested on: nontransfected human 3T3 cells; assay: Basal release of APP fragments from wild-type (nontransfected) 3T3 cells; type: cell-based; conditions: wild-type cell lines, FIGS. 1A and 1C
From the text: Cultured human NIH 3T3 fibroblasts were utilized.
Molecular weight standards were obtained from Amersham.

[8] = 10 μM serotonin, 5HT2 transfected cells, FIG. 1D
[9] = stimulation with serotonin, Western blot

CNc1ccc2oc(C[C@H]3O[C@@]4(CC[C@H]3C)O[C@H]([C@H](C)C(=O)c3ccc[nH]3)[C@H](C)C[C@H]4C)nc2c1C(=O)O [A23187]
ability to mimic the receptor-mediated stimulation of basal APP release ([1]; calcium ionophore, increased intracellular calcium alone): failure

CCN[C@@H](C)Cc1cccc(C(F)(F)F)c1 [dexfenfluramine]
amounts of dexfenfluramine and its de-ethylated metabolite dexnorfenfluramine appearing in the brain [2]: roughly equal amounts

C[C@H](N)Cc1cccc(C(F)(F)F)c1 [dexnorfenfluramine, (+) 1-[3-(trifluoromethyl)-phenyl] propan-2-amine hydrochloride]
increase of basal APP release ([3]; 5HT1C transfected cells, normalized to vehicle-treated controls): 3 fold | increase in the release of serotonin [4]: 6-7 fold | turnover of phosphatidylinositol [5]: stimulated

O=C(c1ccc(F)cc1)C1CCN(CCn2c(=O)[nH]c3ccccc3c2=O)CC1 [ketanserin]
effect on receptor-activated APP release in response to dexnorfenfluramine [3]: blocked | effect on receptor-activated APP release in response to serotonin [6]: blocked

CN1CCN2c3ccccc3Cc3ccccc3C2C1 (centres unmarked) [mianserin]
effect on receptor-activated APP release in response to dexnorfenfluramine [3]: blocked

Cc1nc2sccn2c(=O)c1CCN1CCC(=C(c2ccc(F)cc2)c2ccc(F)cc2)CC1 [ritanserin]
effect on receptor-activated APP release in response to dexnorfenfluramine [3]: blocked | effect on receptor-activated APP release in response to serotonin [6]: blocked

NCCc1c[nH]c2ccc(O)cc12 [serotonin]
stimulation of basal release of APP fragments [7]: not stimulated | time to half-maximal stimulation of APP release [6, 8]: 30 to 40 min | time to maximum stimulation of APP release [6, 8]: ≤ 120 min | 128 kD APP derivative secreted into the culture medium [1, 9]: increase | abundance of cell-associated 115 kD APP [1, 9]: remained unaffected | abundance of cell-associated 141 kD APP [1, 9]: decreased

CN[C@@H]1C[C@H]2O[C@@](C)([C@@H]1OC)n1c3ccccc3c3c4c(c5c6ccccc6n2c5c31)C(=O)NC4 [staurosporine]
effect on the serotonin effect on APP release ([1]; serotonin-stimulated transfected cells): inhibited
